The target of one test is Bub1 (Homo sapiens, UniProt O43683). The test can be described thus: Formation-Assay: phosphorylation status of histone 2A by inhibition of kinase activity of Bub1. It is filed as cell-based. The following applies: Biological Assay 4.1: H2A Formation IC50, co-treatment with Nocodazole 1 μg/ml, 16 h. In a few lines: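 Cells co-treated 16 h with Nocodazole (1 μg/ml) and compound (3 nM–10 μM), then fixed and immunostained for phospho-H2A, read by infrared imaging (800 nm) normalised to cell stain (700 nm). Nocodazole-only set as 100%, untreated cells as 0%.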
Bub1, sequence (O43683 whole entry): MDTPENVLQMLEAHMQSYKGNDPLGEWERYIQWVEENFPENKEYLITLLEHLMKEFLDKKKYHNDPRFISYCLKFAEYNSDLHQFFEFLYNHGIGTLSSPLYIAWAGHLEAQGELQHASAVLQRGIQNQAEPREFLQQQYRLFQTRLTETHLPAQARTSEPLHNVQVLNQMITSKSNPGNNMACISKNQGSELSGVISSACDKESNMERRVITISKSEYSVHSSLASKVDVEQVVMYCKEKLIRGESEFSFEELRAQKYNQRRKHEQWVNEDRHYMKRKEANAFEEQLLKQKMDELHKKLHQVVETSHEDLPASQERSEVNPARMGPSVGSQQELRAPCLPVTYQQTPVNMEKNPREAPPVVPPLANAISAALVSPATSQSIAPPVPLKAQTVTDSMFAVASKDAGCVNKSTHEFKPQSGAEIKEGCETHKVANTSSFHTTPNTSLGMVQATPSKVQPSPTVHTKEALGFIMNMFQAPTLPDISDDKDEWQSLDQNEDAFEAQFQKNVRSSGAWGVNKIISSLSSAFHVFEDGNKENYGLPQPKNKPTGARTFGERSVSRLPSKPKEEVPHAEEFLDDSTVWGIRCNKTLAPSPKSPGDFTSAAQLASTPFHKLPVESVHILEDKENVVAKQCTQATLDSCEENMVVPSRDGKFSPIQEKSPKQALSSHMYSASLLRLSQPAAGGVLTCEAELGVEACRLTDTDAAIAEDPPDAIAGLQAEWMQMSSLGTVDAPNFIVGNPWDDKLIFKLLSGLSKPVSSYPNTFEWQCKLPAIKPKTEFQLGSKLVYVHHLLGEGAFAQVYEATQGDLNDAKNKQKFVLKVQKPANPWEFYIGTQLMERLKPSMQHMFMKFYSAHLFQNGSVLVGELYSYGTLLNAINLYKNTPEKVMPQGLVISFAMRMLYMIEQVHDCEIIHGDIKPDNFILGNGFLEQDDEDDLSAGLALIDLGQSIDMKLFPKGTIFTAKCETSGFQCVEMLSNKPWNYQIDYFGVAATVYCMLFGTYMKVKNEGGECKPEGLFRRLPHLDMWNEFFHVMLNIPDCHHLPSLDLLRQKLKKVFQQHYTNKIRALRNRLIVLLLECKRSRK

In test [1] the target is T1, catalytic domain of human Bub1 (amino acids 704-1085) (Homo sapiens, UniProt O43683).
T1 construct: catalytic domain of human Bub1 (amino acids 704-1085); His6 (N); made in house; host or cells: Hi5 insect cells
T1 sequence (O43683 704-1085): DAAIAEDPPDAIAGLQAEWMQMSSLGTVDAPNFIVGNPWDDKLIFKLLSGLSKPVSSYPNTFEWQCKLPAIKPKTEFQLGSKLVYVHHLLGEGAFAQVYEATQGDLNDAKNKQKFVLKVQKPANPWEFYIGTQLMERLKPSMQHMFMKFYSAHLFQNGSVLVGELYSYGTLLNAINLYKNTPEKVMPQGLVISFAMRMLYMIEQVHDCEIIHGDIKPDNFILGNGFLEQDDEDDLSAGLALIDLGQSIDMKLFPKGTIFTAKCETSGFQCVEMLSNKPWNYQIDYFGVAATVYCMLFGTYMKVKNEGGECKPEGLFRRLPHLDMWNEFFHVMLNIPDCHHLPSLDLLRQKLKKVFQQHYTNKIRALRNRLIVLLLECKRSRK
The test can be described thus: Bub1 kinase assay (TR-FRET). It is filed as biochemical. The procedure, abridged: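 TR-FRET read-out (Eu-anti-mouse IgG/anti-phosphoserine antibody to streptavidin-XL665 on biotinylated peptide) after EDTA stop and 1 h complex formation at 22° C. Kinase reaction ran 60 min at 22° C with 1:3.4 serial dilutions from 2 mM DMSO stocks. IC50 from 4-parameter logistic fit of normalized inhibition.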
In general terms: Time-resolved FRET reads energy transfer from a long-lived donor to a nearby acceptor.

The next test relates to HeLa. The test can be described thus: Proliferation assay (HeLa cell line).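 Further: crystal violet staining of cell number, scaled between a plate stained before dosing (0%) and cells left untreated (100%), compounds tested at 0.001-10 µM, IC50 via 4-parameter fit.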 The following applies: Homo sapiens, 96 h, read-out: Biological Assay 2: Proliferation assay (HeLa cell line) median IC50.
The subject of test [2] is HeLa human cervical tumor cells. The test can be described thus: Proliferation assay (HeLa+Paclitaxel).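 Further: compounds at 0.001-10 µM added 4 h after paclitaxel, 92 h exposure, absorbance normalized to zero-point plate (0%) and untreated cells (100%), IC50 from 4-parameter fit.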 The following applies: read-out: Biological Assay 3: HeLa + Paclitaxel IC50, 3 nM paclitaxel, crystal violet.
Setting [3] is: Biological Assay 1: Bub1 kinase assay median IC50, 10 μM ATP.
Setting [4] is: 10 μM ATP, read-out: Biological Assay 1: Bub1 kinase assay median IC50.

This note sets out measurements from patent US20170275270A1, “BENZYL SUBSTITUTED INDAZOLES” (Bayer Pharma Aktiengesellschaft, priority 2014, published 2017).

Where a name gives a salt, the structure may show the parent alone. Read-outs that look alike come from different tables or passages of the source.

As to `CCOc1cc(F)c(Cn2nc(-c3ncc(C4CCNCC4)c(Nc4ccnc(NC(C)=O)c4)n3)c3ccccc32)c(F)c1` [Example 2-17-2, N-[4-({2-[1-(4-ethoxy-2,6-difluorobenzyl)-1H-indazol-3-yl]-5-(piperidin-4-yl)pyrimidin-4-yl}amino)pyridin-2-yl]acetamide], the IC50 is 4.8 nM on Bub1, 8.6 nM in test [1] (setting [3]), 3.1 µM in the test with HeLa and 190 nM in test [2].
Turning to `CCOc1cc(F)c(Cn2nc(-c3nc(CN4CCOCC4)cc(Nc4ccncc4C)n3)c3ccccc32)c(F)c1` [Example 2-12-13, 2-[1-(4-ethoxy-2,6-difluorobenzyl)-1H-indazol-3-yl]-N-(3-methylpyridin-4-yl)-6-(morpholin-4-ylmethyl)pyrimidin-4-amine], the IC50 at Bub1 is 6.6 nM; in test [1] (setting [4]), 6 nM; in the test with HeLa, 3.4 µM; in test [2], 89 nM.
With `CCOc1cc(F)c(Cn2nc(-c3nc4c(c(Nc5ccnc(C(F)F)c5)n3)CCCC4)c3ccccc32)c(F)c1` [Example 2-19-19, N-[2-(difluoromethyl)pyridin-4-yl]-2-[1-(4-ethoxy-2,6-difluorobenzyl)-1H-indazol-3-yl]-5,6,7,8-tetrahydroquinazolin-4-amine], the IC50 at Bub1 was 7.3 nM; in test [1] (setting [4]), 19 nM; in the test with HeLa, greater than 10 µM; in test [2] it was 690 nM.
`CCOc1cc(F)c(Cn2nc(-c3nc4c(c(Nc5ccnc(C)c5)n3)CN(CC)CC4)c3ccccc32)c(F)c1` [Example 2-15-2, 2-[1-(4-ethoxy-2,6-difluorobenzyl)-1H-indazol-3-yl]-6-ethyl-N-(2-methylpyridin-4-yl)-5,6,7,8-tetrahydropyrido[4,3-d]pyrimidin-4-amine]: the IC50 at Bub1 is 39 nM; in test [1] (setting [3]), 47 nM; in the test on HeLa it was greater than 10 µM; in test [2], 45 nM.
The like results for `CCOc1cc(F)c(Cn2nc(-c3nc4c(c(Nc5ccncc5)n3)CNC4)c3ccccc32)c(F)c1` [Example 2-9-14, 2-[1-(4-ethoxy-2,6-difluorobenzyl)-1H-indazol-3-yl]-N-(pyridin-4-yl)-6,7-dihydro-5H-pyrrolo[3,4-d]pyrimidin-4-amine, salt with hydrochloric acid] were, in that order, 11 nM, 11 nM, 4.3 µM and 170 nM.
As for `OCCOc1cc(F)c(Cn2nc(-c3ncc(C4CCN(CC(F)(F)F)CC4)c(Nc4ccncc4Cl)n3)c3ccccc32)c(F)c1` [Example 2-6-14, 2-{4-[(3-{4-[(3-chloropyridin-4-yl)amino]-5-[1-(2,2,2-trifluoroethyl)piperidin-4-yl]pyrimidin-2-yl}-1H-indazol-1-yl)methyl]-3,5-difluorophenoxy} ethanol], the IC50 was found to be 7.1 nM at Bub1, 36 nM in test [1] (setting [3]), 2.4 µM in the test on HeLa and 340 nM in test [2].
On to `CCOc1cc(F)c(Cn2nc(-c3nc4c(c(Nc5ccnc(C)c5)n3)CCC4)c3ccccc32)c(F)c1` [Example 2-12-6, 2-[1-(4-ethoxy-2,6-difluorobenzyl)-1H-indazol-3-yl]-N-(2-methylpyridin-4-yl)-6,7-dihydro-5H-cyclopenta[d]pyrimidin-4-amine], for which the IC50 at Bub1 amounted to 6 nM; in test [1] (setting [4]), 11 nM; in the test on HeLa, 1.2 µM; in test [2] it was 330 nM.
For `CCOc1cc(F)c(Cn2nc(-c3nc4c(c(Nc5cc(C)ncc5C)n3)CC(C)(C)C4)c3ccccc32)c(F)c1` [Example 2-12-59, N-(2,5-dimethylpyridin-4-yl)-2-[1-(4-ethoxy-2,6-difluorobenzyl)-1H-indazol-3-yl]-6,6-dimethyl-6,7-dihydro-5H-cyclopenta[d]pyrimidin-4-amine], the IC50 at Bub1 is 120 nM; in test [1] (setting [4]), 22 nM; in the test on HeLa it was greater than 10 µM; in test [2], 62 nM.
